Data published in patent publication US9714244B2, “Substituted pyrido[4,3-d]pyrimidines as Wee-1 inhibitors” (ALMAC DISCOVERY LIMITED, priority 2013, dated 2017).

Experiments:
[1] = molecular target: CYP2C9 (Homo sapiens (Human), UniProt P11712); assay: Time dependent CYP inhibition: CYP2C9; format: in vitro ADME; conditions: 30 min pre incubation ±NADPH relative to direct inhibition IC50 with no pre-incubation
Excerpt: (§1) Compounds of the present invention have no time dependent CYP inhibition.

[2] = system: phospho-cdc2 (Tyr15) in HT-29 cells; assay: Effect on phosphorylation of cdc2 at Tyr15 in HT-29 cells (PathScan ELISA); format: cell-based; conditions: Homo sapiens, HT-29, 8 h; HT29 cells, eight hours incubation; read-out: HT29 pCDC2 activity
Method: Method 2: Determining the effect of compounds on the phosphorylation of cdc2 at Tyr15
The colorectal cancer cell lines HT-29 and HCT-116 were purchased from the ATCC and routinely maintained in McCoy's Medium (Invitrogen) supplemented with 10% Foetal Calf Serum.
The cells were trypsinised from their growing vessel and counted, 100 μL of cell suspension containing 6000 cells was pipetted into black 96 well Co-star plates and incubated overnight to allow adherence to the surface at a temperature of 37° C. and an atmosphere of 5% CO2. Test compounds were formulated in DMSO and diluted in foetal calf serum supplemented medium. Incubating medium was removed by aspiration and diluted drug supplemented medium added to each well.
The plate was returned to the incubator for an additional eight hours at 37° C. and an atmosphere of 5% CO2. Post incubation, the drug supplemented medium was aspirated from each well and the cells were washed once in ice-cold phosphate buffered saline (PBS). 100 μL of cell lysis buffer (Cell Signalling Technologies #9803) containing 20 mM Tris, 150 mM NaCl, 1 mM EDTA, 1 mM EGTA, 1% Triton-X100, 2.5 mM sodium pyrophosphate, 1 mM glycerophosphate, 1 mM Na3VO4 and 1 μg/mL leupeptin was added to each well of the 96 well plate and incubated at 4° C. for 30 min. The samples on the plate were snap frozen at −80° C. until required.
Immediately before the continuation of the assay, the sample plate was thawed and centrifuged at 4° C. for 10 min and the supernatant transferred to secondary tubes or 96 well plate.
Cell supernatant was mixed in a ratio of 1:1 with sample dilutent buffer and vortexed for one minute. 100 μL of diluted sample was pipetted into pre-coated plates containing a rabbit polyclonal antibody for phospho-cdc2 (Tyr15) (Cell Signalling Technologies PathScan kit #7176). The plate was sealed and incubated overnight at 4° C.
The plate seal was removed and the well contents aspirated, followed by 3×5 min washes with 200 μL of diluted wash buffer. Between each wash the plate was tapped firmly onto blotting paper to ensure the removal of all kit solution. 100 μL of kit detection antibody was added to each well and the plate re-sealed and incubated at 37° C. for 1 h. Post incubation the plate was washed and processed in a similar manner to that previously described.
100 μL of horseradish peroxidise-linked secondary antibody was added to each test well, the plate sealed and incubated for thirty minutes at 37° C. Post incubation, the plate was washed as previously stated, followed by the addition of 100 μL of 3,3′,5,5′ tetramethylbenzidine (TMB reagent). The plate was sealed and incubated at RT for 30 min.
100 μL of stop solution was added to each well and the underside of the plate wiped with a lint-free tissue, prior to spectrophotometric determination. Absorbance from each well was read at 450 nm within 30 min of the addition of the stop solution.
The percentage of phospho-cdc2 was calculated compared to DMSO control and plotted versus the concentration of inhibitor using GraphPad Prism. Data was fitted using non-linear regression analysis and IC50 values generated.

[3] = Oral bioavailability in rat; conditions: in vivo
Excerpt: Compounds of the present invention are orally bioavailable.

[4] = Human hepatocyte assay CLint; format: in vitro ADME; conditions: hepatocytes
Method: (§2) Compounds of the present invention have good stability in human and/or rat hepatocyte incubations. In particular, representative examples 7, 8, 13, 18, 20 have CLint of <20 μL/min/10^6 cells in a human hepatocyte assay and/or <40 μL/min/10^6 cells in a rat hepatocyte assay.

[5] = Rat hepatocyte assay CLint; format: in vitro ADME; conditions: hepatocytes
Method: as §2

[6] = molecular target: CYP3A4 (Homo sapiens (Human), UniProt P08684); assay: Time dependent CYP inhibition: CYP3A4; format: in vitro ADME; conditions: 30 min pre incubation ±NADPH relative to direct inhibition IC50 with no pre-incubation
Sequence of CYP3A4 (P08684 whole entry): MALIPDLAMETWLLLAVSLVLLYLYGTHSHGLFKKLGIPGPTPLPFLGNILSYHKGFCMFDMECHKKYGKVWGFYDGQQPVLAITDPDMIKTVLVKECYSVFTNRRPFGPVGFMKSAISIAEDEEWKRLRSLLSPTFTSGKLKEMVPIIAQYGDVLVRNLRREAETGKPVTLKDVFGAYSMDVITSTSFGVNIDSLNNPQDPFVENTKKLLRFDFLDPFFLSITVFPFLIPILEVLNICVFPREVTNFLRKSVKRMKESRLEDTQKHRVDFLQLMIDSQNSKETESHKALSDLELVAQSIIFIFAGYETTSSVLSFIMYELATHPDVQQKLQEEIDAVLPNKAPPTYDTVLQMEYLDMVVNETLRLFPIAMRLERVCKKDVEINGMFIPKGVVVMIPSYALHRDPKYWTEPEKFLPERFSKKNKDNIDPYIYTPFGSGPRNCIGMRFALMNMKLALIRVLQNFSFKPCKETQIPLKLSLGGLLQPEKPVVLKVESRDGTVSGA
Excerpt: as §1

[7] = CLint estimates using human liver microsomes; format: in vitro ADME; conditions: pH 7.4, read-out: HLM activity (HLM CLint)
Method: Method for the Determination of CLint Estimates Using Human Liver Microsomes
Test compounds (final concentration=1 μM; final DMSO concentration=0.1%) were incubated in 0.1M phosphate buffer pH 7.4 with human liver microsomes (0.5 mg of protein/mL) at 37° C. Reactions were started by addition of NADPH in 0.1M phosphate buffer pH 7.4 (final concentration 1 mM). 40 μL aliquots were removed at 2, 5, 10, 15, 20, 30, 40 and 50 min. Reactions were quenched in 80 μL of ice-cold methanol. Samples were subsequently frozen overnight then centrifuged at 3500 rpm for 20 min at 4° C. The supernatants were removed and transferred into analytical plates and analysed by LC/MS/MS.
All samples were analysed on a Waters Acquity I-Class coupled to a Waters Xevo TQD mass spectrometer. A Waters BEH C18 2.1×50 mm 1.7 μm column was used and mobile phases were water and methanol containing 0.1% formic acid as modifier. Analysis was by multiple reaction monitoring and conditions were optimised for each test compound.
From a plot of ln peak area against time, the gradient of the line is determined. Subsequently, half-life and intrinsic clearance are calculated using the following equations.

[8] = molecular target: Wee-1 kinase (Homo sapiens (Human), UniProt P30291); assay: Measurement of Wee-1 kinase activity (ADP-Glo); format: biochemical; conditions: read-out: Wee-1 IC50 activity
Sequence of Wee-1 kinase (P30291 whole entry): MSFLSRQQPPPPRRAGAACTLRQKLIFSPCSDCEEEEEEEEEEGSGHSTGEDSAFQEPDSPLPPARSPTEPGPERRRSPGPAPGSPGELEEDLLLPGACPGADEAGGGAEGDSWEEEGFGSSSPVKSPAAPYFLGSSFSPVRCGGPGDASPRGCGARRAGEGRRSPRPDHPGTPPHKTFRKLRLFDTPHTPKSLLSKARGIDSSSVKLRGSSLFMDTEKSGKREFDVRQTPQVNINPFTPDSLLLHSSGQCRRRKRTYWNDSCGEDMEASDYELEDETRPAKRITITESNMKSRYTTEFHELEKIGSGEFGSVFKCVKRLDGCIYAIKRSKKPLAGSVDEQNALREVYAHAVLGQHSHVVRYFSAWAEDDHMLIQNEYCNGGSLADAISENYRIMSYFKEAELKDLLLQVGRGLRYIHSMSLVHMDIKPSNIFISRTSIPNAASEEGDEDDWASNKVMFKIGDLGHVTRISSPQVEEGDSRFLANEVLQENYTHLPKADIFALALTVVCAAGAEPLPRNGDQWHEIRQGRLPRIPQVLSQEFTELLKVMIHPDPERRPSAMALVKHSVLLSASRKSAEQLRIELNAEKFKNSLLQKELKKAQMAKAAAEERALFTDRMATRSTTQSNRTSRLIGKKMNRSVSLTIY
Method: Method 1: Measurement of Wee-1 kinase activity
In the measurement of Wee-1 activity, a commercial peptide Poly(Lys Tyr(4:1)) hydrobromide was purchased from Sigma Aldrich and used as the substrate. Activated Wee-1 kinase was purchased from Invitrogen (PV3817) and an ADP-Glo luminescent kit was purchased from Promega.
All reactions took place in […] volumes in reaction buffer containing 40 mM Tris-HCl and 20 mM magnesium chloride, supplemented with 0.1 mg/mL bovine serum albumin and 2 mM DTT. Compounds were serially diluted in buffer and 5 μL of each concentration pipetted into a white 384 well plate (Sigma Aldrich M6186). A 5 μL aliquot of the Wee-1 enzyme was added to each well and the plate centrifuged for 1 min to ensure mixing of the enzyme and inhibitor.
The plate was incubated at room temperature for 30 minutes before the addition of 2.0 μg/mL of substrate and 30 μM ATP in a 5 μL aliquot. The plate was centrifuged for one minute and incubated for 1 h at RT.
15 μL of ADP-Glo stop reagent was added to each well to quench the reaction and deplete unconverted ATP. The plate was incubated for a further 40 min in the dark at RT.
30 μL of ADP-Glo kinase detection reagent was added to each well, converting ADP to ATP, catalysing the generation of luciferin by luciferase. The plate was shaken for 1 min, and incubated in the dark for an additional hour.
Luminescence from each well was detected using the Biotek Synergy4 HD plate reader and the percentage inhibition of kinase activity calculated for each inhibitor tested. Positive (kinase only) and negative (no kinase) controls were added to each plate to ensure specific interaction of kinase and inhibitor. The IC50 concentration for each inhibitor was calculated by plotting the percentage kinase inhibition against concentration of inhibitor and the curve generated by non-linear regression fitting.

[9] = molecular target: CYP2D6 (Homo sapiens (Human), UniProt P10635); assay: Time dependent CYP inhibition: CYP2D6; format: in vitro ADME; conditions: 30 min pre incubation ±NADPH relative to direct inhibition IC50 with no pre-incubation
Sequence of CYP2D6 (P10635 whole entry): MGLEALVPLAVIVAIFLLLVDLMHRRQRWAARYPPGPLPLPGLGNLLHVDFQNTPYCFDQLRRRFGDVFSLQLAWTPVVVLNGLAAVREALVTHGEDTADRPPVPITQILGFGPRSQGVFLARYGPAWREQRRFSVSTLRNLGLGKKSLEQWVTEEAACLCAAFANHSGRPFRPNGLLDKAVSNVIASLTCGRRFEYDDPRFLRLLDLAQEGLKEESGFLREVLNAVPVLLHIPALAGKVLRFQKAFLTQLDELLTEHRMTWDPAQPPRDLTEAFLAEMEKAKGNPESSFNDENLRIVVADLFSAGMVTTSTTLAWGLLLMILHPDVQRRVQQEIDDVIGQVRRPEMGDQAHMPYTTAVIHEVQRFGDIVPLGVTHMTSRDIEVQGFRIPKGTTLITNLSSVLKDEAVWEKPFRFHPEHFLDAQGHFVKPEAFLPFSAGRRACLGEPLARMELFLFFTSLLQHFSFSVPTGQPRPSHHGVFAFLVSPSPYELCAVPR
Excerpt: as §1

[10] = molecular target: CYP2C19 (Homo sapiens (Human), UniProt P33261); assay: Time dependent CYP inhibition: CYP2C19; format: in vitro ADME; conditions: 30 min pre incubation ±NADPH relative to direct inhibition IC50 with no pre-incubation
Sequence of CYP2C19 (P33261 whole entry): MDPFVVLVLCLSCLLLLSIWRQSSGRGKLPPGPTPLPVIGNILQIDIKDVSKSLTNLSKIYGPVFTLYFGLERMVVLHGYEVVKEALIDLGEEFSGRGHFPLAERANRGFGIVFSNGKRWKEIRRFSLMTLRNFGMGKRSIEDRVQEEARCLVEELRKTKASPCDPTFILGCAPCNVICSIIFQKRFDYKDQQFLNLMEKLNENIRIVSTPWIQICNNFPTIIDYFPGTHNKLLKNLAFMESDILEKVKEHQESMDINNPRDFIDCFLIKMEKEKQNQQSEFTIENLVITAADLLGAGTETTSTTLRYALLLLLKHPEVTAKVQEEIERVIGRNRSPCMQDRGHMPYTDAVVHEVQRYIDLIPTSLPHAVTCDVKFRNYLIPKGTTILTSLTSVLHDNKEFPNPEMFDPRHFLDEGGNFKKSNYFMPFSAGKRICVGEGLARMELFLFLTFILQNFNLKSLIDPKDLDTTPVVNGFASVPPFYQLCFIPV
Excerpt: as §1

[11] = molecular target: human ether a go-go related gene (hERG) K+ channel (Homo sapiens (Human), UniProt Q12809); assay: hERG inhibition, IonWorks patch clamp electrophysiology; format: cell-based; conditions: 8-point curve from 11 μM
Sequence of human ether a go-go related gene (hERG) K+ channel (Q12809 whole entry): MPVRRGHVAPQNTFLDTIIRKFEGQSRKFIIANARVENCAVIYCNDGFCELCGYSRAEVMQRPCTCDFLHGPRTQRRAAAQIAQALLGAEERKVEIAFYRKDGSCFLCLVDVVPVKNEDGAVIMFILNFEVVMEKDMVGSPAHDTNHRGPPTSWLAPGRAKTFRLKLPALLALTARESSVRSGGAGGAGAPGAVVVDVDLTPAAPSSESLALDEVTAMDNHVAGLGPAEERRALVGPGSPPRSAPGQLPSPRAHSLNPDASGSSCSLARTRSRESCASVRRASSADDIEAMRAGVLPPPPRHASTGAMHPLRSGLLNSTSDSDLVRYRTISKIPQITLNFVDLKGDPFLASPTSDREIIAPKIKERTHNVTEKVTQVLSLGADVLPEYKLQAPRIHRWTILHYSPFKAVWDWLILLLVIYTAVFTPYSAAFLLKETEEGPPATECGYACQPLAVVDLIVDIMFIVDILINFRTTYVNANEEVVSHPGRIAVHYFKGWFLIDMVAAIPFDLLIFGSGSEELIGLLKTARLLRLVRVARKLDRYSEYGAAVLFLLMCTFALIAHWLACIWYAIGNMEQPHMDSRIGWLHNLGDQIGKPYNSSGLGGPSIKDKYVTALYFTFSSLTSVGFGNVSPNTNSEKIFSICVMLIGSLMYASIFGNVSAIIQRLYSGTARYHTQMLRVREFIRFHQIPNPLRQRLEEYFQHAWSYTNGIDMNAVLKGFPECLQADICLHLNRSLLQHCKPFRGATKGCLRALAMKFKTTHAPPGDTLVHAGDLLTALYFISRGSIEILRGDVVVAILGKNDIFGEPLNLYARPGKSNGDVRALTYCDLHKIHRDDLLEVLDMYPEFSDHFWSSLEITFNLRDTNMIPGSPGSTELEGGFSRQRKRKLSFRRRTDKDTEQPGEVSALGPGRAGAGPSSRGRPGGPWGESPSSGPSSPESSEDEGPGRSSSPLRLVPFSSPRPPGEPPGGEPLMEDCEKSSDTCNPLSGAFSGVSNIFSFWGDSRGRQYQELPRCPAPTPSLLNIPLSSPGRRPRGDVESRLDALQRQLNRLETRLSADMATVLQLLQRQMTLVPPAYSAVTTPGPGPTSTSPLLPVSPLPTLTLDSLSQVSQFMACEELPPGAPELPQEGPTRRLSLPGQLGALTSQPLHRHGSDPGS
Method: Compounds were tested for inhibition of the human ether a go-go related gene (hERG) K^+ channel using IonWorks patch clamp electrophysiology at Essen BioScience.

Sequence of CYP2C9 (P11712 whole entry): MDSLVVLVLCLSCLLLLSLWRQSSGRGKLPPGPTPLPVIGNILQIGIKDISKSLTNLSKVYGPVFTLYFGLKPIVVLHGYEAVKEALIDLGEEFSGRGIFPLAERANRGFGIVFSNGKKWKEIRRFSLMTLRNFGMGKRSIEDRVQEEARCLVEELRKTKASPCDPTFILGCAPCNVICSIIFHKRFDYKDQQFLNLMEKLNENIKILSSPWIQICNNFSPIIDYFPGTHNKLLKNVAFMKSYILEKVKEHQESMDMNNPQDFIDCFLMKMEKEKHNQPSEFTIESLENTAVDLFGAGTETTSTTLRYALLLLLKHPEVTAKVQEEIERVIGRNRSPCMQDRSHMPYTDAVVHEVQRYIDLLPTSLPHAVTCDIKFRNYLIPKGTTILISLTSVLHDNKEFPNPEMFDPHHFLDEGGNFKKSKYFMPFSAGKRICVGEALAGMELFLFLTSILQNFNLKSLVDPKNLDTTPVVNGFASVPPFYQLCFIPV

CNCc1cc(Nc2ncc3c(=O)n(-c4c(Cl)cccc4Cl)ccc3n2)ccc1N1CCOCC1 [Example 20, 6-(2,6-Dichlorophenyl)-2-((3-((methylamino)methyl)-4-morpholinophenyl)amino)pyrido[4,3-d]pyrimidin-5(6H)-one]
time dependent inhibition of CYP2C9: shift in IC50 [1]: < 2 fold | IC50 [2]: ≤ 100 nM | bioavailability [3]: > 25% | hepatocyte CLint [4]: < 20 µL/min/1e6 cells | hepatocyte CLint [5]: < 40 µL/min/1e6 cells | time dependent inhibition of CYP3A4: shift in IC50 [6]: < 2 fold | microsomal CLint at 1 μM [7]: ≤ 20 µL/min/mg | IC50 [8]: < 10 nM | time dependent inhibition of CYP2D6: shift in IC50 [9]: < 2 fold | time dependent inhibition of CYP2C19: shift in IC50 [10]: < 2 fold | IC50 [11]: ≥ 10000 nM
